# According to PMC7415757, “Monocrotaline-induced liver toxicity in rat predicted by a combined in vitro physiologically based kinetic modeling approach” (Archives of Toxicology, 2020):
# Where two headings read alike, the source gives them in different places.
# Legend:
# [1] = Substrate depletion in incubations with pooled rat liver microsomes; type: in vitro ADME, rat (Sprague–Dawley)
# Experimental: After 5 min of pre-incubation in a shaking water bath at 37 °C, the reactions were started by the addition of 1 mM NADPH. The reactions were carried out for 1 h and 2 h for liver and intestinal microsomes, respectively. For each incubation, a corresponding control incubated in the absence of NADPH was included by adding buffer instead of NADPH. To stop the metabolic conversion, 100 µl of ice-cold methanol was added and the sample was put on ice, then centrifuged at 5000 × g for 20 min at 4 °C using a microcentrifuge (CT15RE, VWR, Leuven, Belgium). Supernatants were diluted 200 times in 90% (v/v) acetonitrile and transferred to LC–MS vials. LC–MS analysis was performed using a Shimadzu Nexera XR LC-20AD SR UPLC system in tandem with a Shimadzu LCMS-8040 mass spectrometer (Shimadzu, Kyoto, Japan). From each incubation, 1 µl of supernatant was loaded onto a Luna Omega polar C18 100A LC column (1.6 µm 100 × 2.1 mm, Phenomenex) fitted with a FP polar precolumn (Phenomenex), using a flow rate of 0.3 ml/min. The temperature was set at 40 °C and 5 °C for column and sample, respectively. The mobile phase consisted of ultrapure water (solvent A) and acetonitrile (solvent B) both containing 0.1% (v/v) formic acid. The gradient began with 100% solvent A (0% B) for 1 min to wash away unwanted salts, followed by a linear gradient from 0 to 5% B till 8 min and a further increase to 100% B in 2 min, keeping the elution at 100% B for 0.5 min, then the column was set back to the starting conditions and equlibrated for 3.4 min before the next injection. […] For all incubations, three independent replicates were performed.
# The ratio of Vmax and Km was calculated as the in vitro catalytic efficiency (kcat) expressed in […]. […] The rat liver weight of 8.5 g and small intestine weight of 3.5 g (see Table 1) (Brown et al. [1997]) were used to scaled the in vivo kcat values to values expressed in ml/min/tissue.
# male Sprague–Dawley rats = conditions: IP single dose 0; 100; 200; 225; 300, 12 h after dosing, BW 100–130 g; ref Copple et al. [2002]; cited from earlier work
# [2] = parameters: method as in Estep et al. 1991; conditions: rat, iv 60 mg/kg bw, ref Estep et al. 1991, cited from earlier work
# primary rat hepatocytes = tested on: primary rat hepatocytes; parameters: method as in Tu et al. ([2013]); conditions: 2 µM, pH 7.4; ref Tu et al. ([2013]); cited from earlier work
# DNA adducts = tested on: DNA adducts; parameters: method as in Xia et al. ([2013]); conditions: moderate tumour formation; ref Xia et al. ([2013]); cited from earlier work
# [3] = parameters: method as in IARC [2019]; conditions: possibly carcinogenic in humans; ref IARC [2019]; cited from earlier work
# [4] = liver, 35 mg microsomal protein/g liver, present study
structure (smiles),measurement,setting,value
C[C@H]1C(=O)O[C@@H]2CCN3CC=C(COC(=O)[C@](C)(O)[C@]1(C)O)[C@H]23 [Monocrotaline],Km,"[1]; Sprague-Dawley, rat, pH 7.4, liver, present study",9.2 µM
same,"scaled liver kcat, times lower than lasiocarpine",[1]; liver,41.8 times
same,"scaled liver kcat, times lower than riddelliine",[1]; liver,4.3 times
same,Scaled kcat,"[1]; liver weight 8.5 g, present study",1.9 ml/min/ tissue
same,Scaled Vmax,[1]; [4],2.1 nmol/min/g tissue
same,Scaled kcat,[1]; [4],0.2 ml/min/g tissue
same,"KmLM1, affinity constant","[1]; liver, PBK model code",9.22 µmol/L
same,"VmaxLM1c, unscaled maximum rate of metabolism","[1]; liver, PBK model code",0.06 nmol/min-1/mg protein
same,Vmax,"[1]; liver, present study",0.06 nmol/min/mg microsomal protein
same,"POD: NOAEL, increased plasma ALT",male Sprague–Dawley rats,100 mg/kg bw
same,"Reported concentration of monocrotaline equivalents, RBCs",[2]; 5 min,144.00 µM
same,"Reported concentration of monocrotaline equivalents, plasma",[2]; 5 min,113.00 µM
same,"Reported concentration of monocrotaline equivalents, RBCs",[2]; 15 min,113.46 µM
same,"Reported concentration of monocrotaline equivalents, plasma",[2]; 15 min,81.88 µM
same,"Reported concentration of monocrotaline equivalents, RBCs",[2]; 30 min,100.06 µM
same,"Reported concentration of monocrotaline equivalents, plasma",[2]; 30 min,67.35 µM
same,"Reported concentration of monocrotaline equivalents, RBCs",[2]; 60 min,100.13 µM
same,"Reported concentration of monocrotaline equivalents, plasma",[2]; 60 min,49.84 µM
same,"Reported concentration of monocrotaline equivalents, RBCs",[2]; 120 min,104.89 µM
same,"Reported concentration of monocrotaline equivalents, plasma",[2]; 120 min,29.65 µM
same,"Reported concentration of monocrotaline equivalents, RBCs",[2]; 180 min,99.93 µM
same,"Reported concentration of monocrotaline equivalents, plasma",[2]; 180 min,21.82 µM
same,"Reported concentration of monocrotaline equivalents, RBCs",[2]; 240 min,99.60 µM
same,"Reported concentration of monocrotaline equivalents, plasma",[2]; 240 min,17.11 µM
same,"Reported concentration of monocrotaline equivalents, RBCs",[2]; 300 min,79.81 µM
same,"Reported concentration of monocrotaline equivalents, plasma",[2]; 300 min,13.07 µM
same,"Reported concentration of monocrotaline equivalents, RBCs",[2]; 360 min,85.50 µM
same,"Reported concentration of monocrotaline equivalents, plasma",[2]; 360 min,12.16 µM
same,"Reported concentration of monocrotaline equivalents, RBCs",[2]; 420 min,81.00 µM
same,"Reported concentration of monocrotaline equivalents, plasma",[2]; 420 min,11.00 µM
same,overall rate for uptake into primary rat hepatocytes,primary rat hepatocytes,14.5 pmol/mg protein/min
same,ranking based on the formation of DNA adducts,DNA adducts,group II
same,IARC carcinogenicity category,[3],2B
